Where two headings read alike, the source gives them in different places. Numbered stars: 1 amine (or outer) side, 2 acyl side, 3 side chain; on linkers, the order of the positions; unused ones are H or OH. Square brackets hold non-standard residues; d marks the D form. Peptide text beside a SMILES is read from it. * marks the point of attachment. Exatecan = CC[C@@]1(O)C(=O)OCc2c1cc1n(c2=O)Cc2c-1nc1cc(F)c(C)c3c1c2[C@@H](N*)CC3; Hexanoyl(6-maleimido) = O=C1C=CC(=O)N1CCCCCC(=O)*; NHCH2OCH2CO = O=C(COCN[*:1])[*:2]
How the values were obtained:
Experiment in all cases: Cell viability assay (CELLCOUNTING-LITE)
Assay type in all cases: cell-based
A375 = test system: A375
Protocol: (§1) Cancerous cells (5,000/well) were seeded in a culture media in a 96-well flat-bottom plate. A compound was prepared by a 3-fold serial dilution and added into each cell solutions. The cells were incubated for 4 or 5 days at 37° C. under 5% CO2. CELLCOUNTING-LITE was added to each well, mixed, and incubated for 10 min at room temperature. The solution in each cell was transferred to a 96-well white opaque plate for reading.

A431 = test system: A431
Protocol: as §1

ASPC-1 = test system: ASPC-1
Protocol: as §1

H226 = test system: H226
Protocol: as §1

H322 = test system: H322
Protocol: as §1

HT29 = test system: HT29
Protocol: as §1

Hut78 = test system: Hut78
Protocol: as §1

Jurkat = test system: Jurkat
Protocol: as §1

KB = test system: KB
Protocol: as §1

MCF7 = test system: MCF7
Protocol: as §1

MV4; 11 = test system: MV4; 11
Protocol: as §1

N87 = test system: N87
Protocol: as §1

RS4; 11 = test system: RS4; 11
Protocol: as §1

Raji = test system: Raji
Protocol: as §1

Ramos = test system: Ramos
Protocol: as §1

Skov-3 = test system: Skov-3
Protocol: as §1

T47D = test system: T47D
Protocol: as §1

[1] = N87 cells, incubated for 4 or 5 days, Table 1, read-out: IC50

Row | SMILES | IC50 (A375; Homo sapiens, A-375) | IC50 (A431; Homo sapiens, A-431) | IC50 (ASPC-1; Homo sapiens, ASPC1) | IC50 (H226; Homo sapiens, NCI-H226) | IC50 (H322; NCI-H322) | IC50 (HT29; Homo sapiens, HT-29) | IC50 (Hut78; Homo sapiens, HuT78) | IC50 (Jurkat; Homo sapiens, Jurkat) | IC50 (KB; Homo sapiens, KB) | IC50 (MCF7; Homo sapiens, MCF7) | IC50 (MV4; 11; Homo sapiens, MV4-11) | IC50 (N87) | IC50 (RS4; 11; Homo sapiens, RS4-11) | IC50 (Raji; Homo sapiens, Raji) | IC50 (Ramos; Homo sapiens, Ramos) | IC50 (Skov-3; Homo sapiens, SK-OV-3) | IC50 (T47D; Homo sapiens, T47D) | IC50 (N87; [1]) | further results
1 | CC[C@@]1(O)C(=O)OCc2c1cc1n(c2=O)Cc2c-1nc1cc(F)c(C)cc1c2C=NOCC(C)CNC(=O)CO (mixture of isomers) [Compound B3, N-(3-((((E/Z)—((S)-4-Ethyl-8-fluoro-4-hydroxy-9-methyl-3,14-dioxo-3,4,12,14-tetrahydro-1H-pyrano[3′,4′:6,7]indolizino[1,2-b]quinolin-11-yl)methylene)amino)oxy)-2-methyl-propyl)-2-hydroxyacetamide] | 5.9 nM | 10 nM | 25 nM | 401 nM | 3.9 nM | 13 nM | 7 nM | 1.2 nM | 18 nM | 21 nM | 10 nM | 7 nM | 0.73 nM | 0.32 nM | 7.2 nM | 3.4 nM | 1.3 nM |  | 
2 | CC[C@@]1(O)C(=O)OCc2c1cc1n(c2=O)Cc2c-1nc1cc(F)c(C)cc1c2C=NOCCCNC(=O)CO [Compound B2, (S,E/Z)—N-(3-((((4-ethyl-8-fluoro-4-hydroxy-9-methyl-3,14-dioxo-3,4,12,14-tetrahydro-1H-pyrano[3′,4′:6,7]indolizino[1,2-b]quinolin-11-yl)methylene)amino)oxy)propyl)-2-hydroxyacetamide] |  |  |  |  |  |  |  |  |  |  |  |  |  |  |  |  |  | 9.1 nM | IC50 (A375; Homo sapiens, A-375, A375 cells, incubated for 4 or 5 days, Table 1, read-out: IC50): 6.9 nM; IC50 (A431; Homo sapiens, A-431, A431 cells, incubated for 4 or 5 days, Table 1, read-out: IC50): 9.8 nM; IC50 (ASPC-1; Homo sapiens, ASPC1, ASPC-1 cells, incubated for 4 or 5 days, Table 1, read-out: IC50): 40 nM; IC50 (H226; Homo sapiens, NCI-H226, H226 cells, incubated for 4 or 5 days, Table 1, read-out: IC50): 113 nM; IC50 (H322; NCI-H322, H322 cells, incubated for 4 or 5 days, Table 1, read-out: IC50): 12 nM; IC50 (HT29; Homo sapiens, HT-29, HT29 cells, incubated for 4 or 5 days, Table 1, read-out: IC50): 16 nM; IC50 (Hut78; Homo sapiens, Hut78 cells, incubated for 4 or 5 days, Table 1, read-out: IC50): 9.1 nM; IC50 (Jurkat; Homo sapiens, Jurkat cells, incubated for 4 or 5 days, Table 1, read-out: IC50): 2.1 nM; IC50 (KB; Homo sapiens, KB cells, incubated for 4 or 5 days, Table 1, read-out: IC50): 19 nM; IC50 (MCF7; Homo sapiens, MCF7 cells, incubated for 4 or 5 days, Table 1, read-out: IC50): 9.2 nM; IC50 (MV4; 11; Homo sapiens, MV4, 11 cells, incubated for 4 or 5 days, Table 1, read-out: IC50): 14 nM; IC50 (RS4; 11; Homo sapiens, RS4, 11 cells, incubated for 4 or 5 days, Table 1, read-out: IC50): 0.88 nM; IC50 (Raji; Homo sapiens, Raji cells, incubated for 4 or 5 days, Table 1, read-out: IC50): 0.58 nM; IC50 (Ramos; Homo sapiens, Ramos cells, incubated for 4 or 5 days, Table 1, read-out: IC50): 6.6 nM; IC50 (Skov-3; Homo sapiens, SK-OV-3, Skov-3 cells, incubated for 4 or 5 days, Table 1, read-out: IC50): 11 nM; IC50 (T47D; Homo sapiens, T47D cells, incubated for 4 or 5 days, Table 1, read-out: IC50): 2.4 nM
3 | CC[C@@]1(O)C(=O)OCc2c1cc1n(c2=O)Cc2c-1nc1cc(F)c(C)c3c1c2[C@@H](NC(=O)COCNC(=O)CNC(=O)[C@H](Cc1ccccc1)NC(=O)CNC(=O)CNC(=O)CCCCCN1C(=O)C=CC1=O)CC3 [Deruxtecan, reference compound] ({Hexanoyl(6-maleimido)}-GGFG[NHCH2OCH2CO]-Exatecan) |  |  |  |  |  |  |  |  |  |  |  |  |  |  |  |  |  | 9.9 nM | IC50 (A375; A375 cells, incubated for 4 or 5 days, Table 1, read-out: IC50): 3.6 nM; IC50 (A431; A431 cells, incubated for 4 or 5 days, Table 1, read-out: IC50): 7.7 nM; IC50 (ASPC-1; ASPC-1 cells, incubated for 4 or 5 days, Table 1, read-out: IC50): 29 nM; IC50 (H226; H226 cells, incubated for 4 or 5 days, Table 1, read-out: IC50): 388 nM; IC50 (H322; H322 cells, incubated for 4 or 5 days, Table 1, read-out: IC50): 8.2 nM; IC50 (HT29; HT29 cells, incubated for 4 or 5 days, Table 1, read-out: IC50): 13 nM; IC50 (Hut78; Hut78 cells, incubated for 4 or 5 days, Table 1, read-out: IC50): 9.9 nM; IC50 (Jurkat; Jurkat cells, incubated for 4 or 5 days, Table 1, read-out: IC50): 2.3 nM; IC50 (KB; KB cells, incubated for 4 or 5 days, Table 1, read-out: IC50): 7.2 nM; IC50 (MCF7; MCF7 cells, incubated for 4 or 5 days, Table 1, read-out: IC50): 5.7 nM; IC50 (MV4; 11; MV4, 11 cells, incubated for 4 or 5 days, Table 1, read-out: IC50): 6.9 nM; IC50 (RS4; 11; RS4, 11 cells, incubated for 4 or 5 days, Table 1, read-out: IC50): 0.65 nM; IC50 (Raji; Raji cells, incubated for 4 or 5 days, Table 1, read-out: IC50): 0.42 nM; IC50 (Ramos; Ramos cells, incubated for 4 or 5 days, Table 1, read-out: IC50): 3.8 nM; IC50 (Skov-3; Skov-3 cells, incubated for 4 or 5 days, Table 1, read-out: IC50): 9.8 nM; IC50 (T47D; T47D cells, incubated for 4 or 5 days, Table 1, read-out: IC50): 1.9 nM
4 | CC[C@@]1(O)C(=O)OCc2c1cc1n(c2=O)Cc2c-1nc1cc(F)c(C)cc1c2C=NOCCNC(=O)CO [Compound B1, (S,E/Z)—N-(2-((((4-Ethyl-8-fluoro-4-hydroxy-9-methyl-3,14-dioxo-3,4,12,14-tetrahydro-1H-pyrano[3′,4′:6,7]indolizino[1,2-b]quinolin-11-yl)methylene)amino)oxy)ethyl)-2-hydroxyacetamide] | 9.4 nM | 18 nM | 54 nM | 153 nM | 12 nM | 28 nM | 11 nM | 3 nM | 31 nM | 19 nM | 18 nM | 11 nM | 1.1 nM | 0.45 nM | 7.8 nM | 9.8 nM | 2.8 nM |  | 
